For 34 compounds, IC50 results are on record in patent publication US20260365628A1, “SUBSTITUTED 3,4-DIHYDROQUINOLINONE INHIBITORS OF TSHR” (Septerna, Inc., priority 2022, published 2026).

This assay concerns the target T1, hTSHR (Homo sapiens, UniProt P16473).
T1 construct: expressed in transfected cells
In words: hTSHR TR-FRET cAMP Assay (inhibition of M22-stimulated cAMP production). In kind it is cell-based. The following applies: Expi293F Inducible cells stably expressing hTSHR; cAMP HTRF; stimulated with EC80 of anti-TSHR antibody M22; 15 min compound preincubation, 30 min at 37° C.; read-out: Activity (IC50 bins). Put shortly: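 Readout was a cAMP HTRF ratio of 655/620 nm after lysis, scaled between the EC80 M22 signal (0% inhibition) and no-agonist vehicle (100%). Frozen induced Expi293F-hTSHR cells saw test compounds (0.5% DMSO) for 15 min at 37 °C before 30 min of M22 stimulation at EC80.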

T1 sequence (P16473 21-764): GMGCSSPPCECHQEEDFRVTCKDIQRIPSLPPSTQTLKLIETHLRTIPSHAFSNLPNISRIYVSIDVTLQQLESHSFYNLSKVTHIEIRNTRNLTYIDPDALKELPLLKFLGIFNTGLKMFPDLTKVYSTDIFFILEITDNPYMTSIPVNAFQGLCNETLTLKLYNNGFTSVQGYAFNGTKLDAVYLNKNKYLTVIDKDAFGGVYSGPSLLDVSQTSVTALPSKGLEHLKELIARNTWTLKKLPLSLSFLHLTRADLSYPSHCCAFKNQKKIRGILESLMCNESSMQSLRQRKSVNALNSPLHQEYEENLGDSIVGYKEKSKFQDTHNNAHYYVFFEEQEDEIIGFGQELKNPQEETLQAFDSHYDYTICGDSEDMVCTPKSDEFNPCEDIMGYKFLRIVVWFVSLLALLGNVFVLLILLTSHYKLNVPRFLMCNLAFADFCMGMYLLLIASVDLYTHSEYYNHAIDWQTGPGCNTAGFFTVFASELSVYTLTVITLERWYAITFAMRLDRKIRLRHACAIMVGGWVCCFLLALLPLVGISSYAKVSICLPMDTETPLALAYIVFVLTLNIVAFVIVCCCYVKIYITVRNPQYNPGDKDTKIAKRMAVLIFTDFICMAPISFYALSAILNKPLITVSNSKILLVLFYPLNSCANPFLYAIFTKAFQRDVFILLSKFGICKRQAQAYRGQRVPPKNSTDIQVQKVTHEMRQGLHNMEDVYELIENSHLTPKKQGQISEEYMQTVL

As for `C[C@@H](c1cccc(CCOCC(C)(C)O)c1)n1c(=O)cnc2cc(NC(=O)NC(C)(C)C)ccc21` [Example 121, (S)-1-(tert-butyl)-3-(1-(1-(3-(2-(2-hydroxy-2-methylpropoxy)ethyl)phenyl)ethyl)-2-oxo-1,2-dihydroquinoxalin-6-yl)urea], the IC50 was over 1000 nM.

For the compound `C[C@@H](c1cccc(C(F)F)c1)n1c(=O)cnc2cc(NC(=O)NC(C)(C)C)ccc21` [Example 122, (S)-1-(tert-butyl)-3-(1-(1-(3-(difluoro-methyl)phenyl)ethyl)-2-oxo-1,2-dihydroquinoxalin-6-yl)urea], the IC50 lay within 100 to 1000 nM.

Regarding `C[C@@H](c1cccc2c1COCC2)n1c(=O)cnc2cc(NC(=O)NC(C)(C)C)ccc21` [Example 123, (S)-1-(tert-butyl)-3-(1-(1-(isochroman-8-yl)ethyl)-2-oxo-1,2-dihydroquinoxalin-6-yl)urea], the IC50 lay within 100 to 1000 nM.

`C[C@@H](c1cccc2c1CCOC2)n1c(=O)cnc2cc(NC(=O)NC(C)(C)C)ccc21` [Example 124, (S)-1-(tert-butyl)-3-(1-(1-(isochroman-5-yl)ethyl)-2-oxo-1,2-dihydroquinoxalin-6-yl)urea]: the IC50 was over 1000 nM.

Regarding `C[C@@H](c1cccc2c1CCC2)n1c(=O)cnc2cc(NC(=O)NC(C)(C)C)ccc21` [Example 125, (S)-1-(tert-butyl)-3-(1-(1-(2,3-dihydro-1H-inden-4-yl)ethyl)-2-oxo-1,2-dihydroquinoxalin-6-yl)urea], the IC50 is 100 to 1000 nM.

With `C[C@@H](c1cccc2ccncc12)n1c(=O)cnc2cc(NC(=O)NC(C)(C)C)ccc21` [Example 126, (S)-1-(tert-butyl)-3-(1-(1-(isoquinolin-8-yl)ethyl)-2-oxo-1,2-dihydroquinoxalin-6-yl)urea], the IC50 was over 1000 nM.

Regarding `C[C@@H](c1cccc(N2CCCCC2)c1)n1c(=O)cnc2cc(NC(=O)NC(C)(C)C)ccc21` [Example 127, (S)-1-(tert-butyl)-3-(2-oxo-1-(1-(3-(piperidin-1-yl)phenyl)ethyl)-1,2-dihydroquinoxalin-6-yl)urea], the IC50 is 100 to 1000 nM.

In the case of `C[C@@H](c1cccc(OC(F)F)c1)n1c(=O)cnc2cc(NC(=O)NC(C)(C)C)ccc21` [Example 128, (S)-1-(tert-butyl)-3-(1-(1-(3-(difluoromethoxy)phe-nyl)ethyl)-2-oxo-1,2-dihydroquinoxalin-6-yl)urea], the IC50 was in the range of 100 to 1000 nM.

Consider `C[C@@H](c1cc(OC(F)(F)F)ccn1)n1c(=O)cnc2cc(NC(=O)NC(C)(C)C)ccc21` [Example 129, (S)-1-(tert-butyl)-3-(2-oxo-1-(1-(4-(trifluoromethoxy)pyri-din-2-yl)ethyl)-1,2-dihydroquinoxalin-6-yl)urea], for which the IC50 is over 1000 nM.

Regarding `C[C@@H](c1cc(Cl)ccc1Cl)n1c(=O)cnc2cc(NC(=O)NC(C)(C)C)ccc21` [Example 130, (S)-1-(tert-butyl)-3-(1-(1-(2,5-dichlorophenyl)ethyl)-2-oxo-1,2-dihydroquinoxalin-6-yl)urea], the IC50 lay within 100 to 1000 nM.

Regarding `C[C@@H](c1cccc(Cl)c1)n1c(=O)cnc2cc(NC(=O)NC(C)(C)C)ccc21` [Example 131, (S)-1-(tert-butyl)-3-(1-(1-(3-chlorophenyl)ethyl)-2-oxo-1,2-dihydroquinoxalin-6-yl)urea], the IC50 was under 100 nM.

For the compound `Cc1cccc([C@H](C)n2c(=O)cnc3cc(NC(=O)NC(C)(C)C)ccc32)c1` [Example 132, (S)-1-(tert-butyl)-3-(2-oxo-1-(1-(m-tolyl)ethyl)-1,2-dihydroquinoxalin-6-yl)urea], the IC50 is 100 to 1000 nM.

`C[C@@H](c1ccc(Cl)c(Cl)c1)n1c(=O)cnc2cc(NC(=O)NC(C)(C)C)ccc21` [Example 133, (S)-1-(tert-butyl)-3-(1-(1-(3,4-dichlorophenyl)ethyl)-2-oxo-1,2-dihydroquinoxalin-6-yl)urea]: the IC50 fell in the range of 100 to 1000 nM.

For `C[C@@H](c1cccc(C2CC2)c1)n1c(=O)cnc2cc(NC(=O)NC(C)(C)C)ccc21` [Example 134, (S)-1-(tert-butyl)-3-(1-(1-(3-cyclopropylphenyl)eth-yl)-2-oxo-1,2-dihydroquinoxalin-6-yl)urea], the IC50 was 100 to 1000 nM.

`C[C@@H](c1cccc(C2CCC2)c1)n1c(=O)cnc2cc(NC(=O)NC(C)(C)C)ccc21` [Example 135, (S)-1-(tert-butyl)-3-(1-(1-(3-cyclo-butylphenyl)ethyl)-2-oxo-1,2-dihydroquinoxalin-6-yl)urea]: the IC50 is 100 to 1000 nM.

Take `CC(C)c1cccc([C@H](C)n2c(=O)cnc3cc(NC(=O)NC(C)(C)C)ccc32)c1` [Example 136, (S)-1-(tert-butyl)-3-(1-(1-(3-iso-propylphenyl)ethyl)-2-oxo-1,2-dihydroquinoxalin-6-yl)urea]: the IC50 was 100 to 1000 nM.

`CC(C)Oc1cccc([C@H](C)n2c(=O)cnc3cc(NC(=O)NC(C)(C)C)ccc32)c1` [Example 137, (S)-1-(tert-butyl)-3-(1-(1-(3-isopropoxyphenyl)eth-yl)-2-oxo-1,2-dihydroquinoxalin-6-yl)urea]: the IC50 fell in the range of 100 to 1000 nM.

For the compound `C[C@@H](c1cccc(C(C)(C)C)c1)n1c(=O)cnc2cc(NC(=O)NC(C)(C)C)ccc21` [Example 138, (S)-1-(tert-butyl)-3-(1-(1-(3-(tert-butyl)phenyl)ethyl)-2-oxo-1,2-dihydroquinoxalin-6-yl)urea], the IC50 is 100 to 1000 nM.

Regarding `C[C@@H](c1cc(Cl)ccc1F)n1c(=O)cnc2cc(NC(=O)NC(C)(C)C)ccc21` [Example 139, (S)-1-(tert-butyl)-3-(1-(1-(5-chloro-2-fluorophenyl)ethyl)-2-oxo-1,2-dihydroquinoxalin-6-yl)urea], the IC50 was in the range of 100 to 1000 nM.

As to `C[C@@H](c1c(F)cccc1F)n1c(=O)cnc2cc(NC(=O)NC(C)(C)C)ccc21` [Example 140, (S)-1-(tert-butyl)-3-(1-(1-(2,6-difluorophenyl)ethyl)-2-oxo-1,2-dihydroquinoxalin-6-yl)urea], the IC50 lay in the range of 100 to 1000 nM.

For `Cc1ccc(Cl)cc1[C@H](C)n1c(=O)cnc2cc(NC(=O)NC(C)(C)C)ccc21` [Example 141, (S)-1-(tert-butyl)-3-(1-(1-(5-chloro-2-methylphenyl)ethyl)-2-oxo-1,2-dihydroquinoxalin-6-yl)urea], the 50% inhibitory concentration (IC50) was in the range of 100 to 1000 nM.

Regarding `C[C@@H](c1cccc(Cl)c1Cl)n1c(=O)cnc2cc(NC(=O)NC(C)(C)C)ccc21` [Example 142, (S)-1-(tert-butyl)-3-(1-(1-(2,3-dichlorophenyl)ethyl)-2-oxo-1,2-dihydroquinoxalin-6-yl)urea], the IC50 lay in the range of 100 to 1000 nM.

As for `C[C@@H](c1cccc(C2CC2)n1)n1c(=O)cnc2cc(NC(=O)NC(C)(C)C)ccc21` [Example 143, (S)-1-(tert-butyl)-3-(1-(1-(6-cyclopropylpyridin-2-yl)ethyl)-2-oxo-1,2-dihydroquinoxalin-6-yl)urea], the IC50 was 100 to 1000 nM.

For the compound `COc1cccc([C@H](C)n2c(=O)cnc3cc(NC(=O)NC(C)(C)C)ccc32)n1` [Example 144, (S)-1-(tert-butyl)-3-(1-(1-(6-methoxypyridin-2-yl)ethyl)-2-oxo-1,2-dihydroquinoxalin-6-yl)urea], the IC50 is 100 to 1000 nM.

As for `C[C@@H](c1cccc(N(C)C)n1)n1c(=O)cnc2cc(NC(=O)NC(C)(C)C)ccc21` [Example 145, (S)-1-(tert-butyl)-3-(1-(1-(6-(dimethyl-amino)pyridin-2-yl)ethyl)-2-oxo-1,2-dihydroquinoxalin-6-yl)urea], the IC50 was in the range of 100 to 1000 nM.

Regarding `CC(O)c1cccc([C@H](C)n2c(=O)cnc3cc(NC(=O)NC(C)(C)C)ccc32)c1` (stereo partly drawn) [Example 146, 1-(tert-butyl)-3-(1-((1S)-1-(3-(1-hydroxy-ethyl)phenyl)eth-yl)-2-oxo-1,2-dihydroquinoxalin-6-yl)urea], the IC50 is over 1000 nM.

In the case of `C[C@@H](c1cc(F)ccc1Cl)n1c(=O)cnc2cc(NC(=O)NC(C)(C)C)ccc21` [Example 147, (S)-1-(tert-butyl)-3-(1-(1-(2-chloro-5-fluorophenyl)ethyl)-2-oxo-1,2-dihydroquinoxalin-6-yl)urea], the half-maximal inhibitory concentration (IC50) was 100 to 1000 nM.

On to `C[C@@H](c1cc(F)ccc1F)n1c(=O)cnc2cc(NC(=O)NC(C)(C)C)ccc21` [Example 148, (S)-1-(tert-butyl)-3-(1-(1-(2,5-difluorophenyl)ethyl)-2-oxo-1,2-dihydroquinoxalin-6-yl)urea], for which the IC50 lay in the range of 100 to 1000 nM.

`C[C@@H](c1cc(Cl)c(F)cc1F)n1c(=O)cnc2cc(NC(=O)NC(C)(C)C)ccc21` [Example 149, (S)-1-(tert-butyl)-3-(1-(1-(5-chloro-2,4-difluorophenyl)ethyl)-2-oxo-1,2-dihydroquinoxalin-6-yl)urea]: the IC50 was in the range of 100 to 1000 nM.

Turning to `C[C@@H](c1cccc(CC(F)(F)F)n1)n1c(=O)cnc2cc(NC(=O)NC(C)(C)C)ccc21` [Example 150, (S)-1-(tert-butyl)-3-(2-oxo-1-(1-(6-(2,2,2-trifluoroethyl)pyridin-2-yl)ethyl)-1,2-dihydroquinoxalin-6-yl)urea], the IC50 fell in the range of 100 to 1000 nM.

As for `C[C@@H](c1cc(OC(F)(F)F)c(F)cc1F)n1c(=O)cnc2cc(NC(=O)NC(C)(C)C)ccc21` [Example 151, (S)-1-(tert-butyl)-3-(1-(1-(2,4-difluoro-5-(trifluoromethoxy)phe-nyl)ethyl)-2-oxo-1,2-dihydroquinoxalin-6-yl)urea], the concentration for half-maximal inhibition (IC50) lay within 100 to 1000 nM.

`C[C@@H](c1ccc2c(c1)OCCC2)n1c(=O)cnc2cc(NC(=O)NC(C)(C)C)ccc21` [Example 152, (S)-1-(tert-butyl)-3-(1-(1-(chroman-7-yl)ethyl)-2-oxo-1,2-dihydroquinoxalin-6-yl)urea]: the IC50 was over 1000 nM.

For the compound `C[C@@H](c1cccc([C@@H](O)C(F)(F)F)n1)n1c(=O)cnc2cc(NC(=O)NC(C)(C)C)ccc21` [Example 153], the IC50 lay within 100 to 1000 nM.

As to `C[C@@H](c1cccc([C@@H](O)C(F)(F)F)c1)n1c(=O)cnc2cc(NC(=O)NC(C)(C)C)ccc21` [Example 155, 1-(tert-butyl)-3-(2-oxo-1-((S)-1-(3-((S)-2,2,2-trifluoro-1-hydroxyethyl)phe-nyl)ethyl)-1,2-dihydroquinoxalin-6-yl)urea], the IC50 fell in the range of 100 to 1000 nM.
